ChEMBL document CHEMBL5053494, “Novel halogenated arylvinyl-1,2,4 trioxanes as potent antiplasmodial as well as anticancer agents: Synthesis, bioevaluation, structure-activity relationship and in-silico studies” (Eur J Med Chem, 2021)
The source made the active and inactive calls. The rule behind the calls is not given here.

How the values were obtained:
Plasmodium falciparum [1] = experiment: Antiplasmodial activity against chloroquine-resistant Plasmodium falciparum INDO assessed as growth inhibition by SYBER green 1 dye based fluorescence assay; assay type: functional, organism-based
Plasmodium falciparum [2] = experiment: Antiplasmodial activity against artemisinin-resistant Plasmodium falciparum Cam 3.1 R539 assessed as growth inhibition by SYBER green 1 dye based fluorescence assay; assay type: functional, organism-based
Plasmodium falciparum [3] = experiment: Resistance index, ratio of IC50 for antiplasmodial activity against artemisinin-resistant Plasmodium falciparum Cam 3.1 R539 to IC50 for antiplasmodial activity against chloroquine-resistant Plasmodium falciparum INDO; assay type: functional
[4] = Cytotoxicity against human HEK293 cells assessed as cell viability measured for 24 hrs by MTT assay; assay type: cell-based
[5] = Selectivity index, ratio of CC50 for human HEK293 cells to IC50 for antiplasmodial activity against chloroquine-resistant Plasmodium falciparum INDO; assay type: toxicity; details: HEK293 cells versus Plasmodium falciparum INDO
Plasmodium falciparum [6] = experiment: Antiplasmodial activity against ring stage chloroquine-resistant Plasmodium falciparum INDO assessed as ring stage parasite killing for 0 to 6 hrs by stage specific inhibition assay relative to control; assay type: functional; design: scale not given: the % may be the effect or the level left; details: time 0-6 hrs
Plasmodium falciparum [7] = experiment: Antiplasmodial activity against ring stage chloroquine-resistant Plasmodium falciparum INDO assessed as ring stage parasite killing for 12 hrs by stage specific inhibition assay relative to control; assay type: functional; design: scale not given: the % may be the effect or the level left
Plasmodium falciparum [8] = experiment: Antiplasmodial activity against trophozoite stage chloroquine-resistant Plasmodium falciparum INDO assessed as parasite killing for 0 to 4 hrs by stage specific inhibition assay relative to control; assay type: functional; design: scale not given: the % may be the effect or the level left; details: time 0-4 hrs
Plasmodium falciparum [9] = experiment: Antiplasmodial activity against trophozoite stage chloroquine-resistant Plasmodium falciparum INDO assessed as parasite killing for 4 to 8 hrs by stage specific inhibition assay relative to control; assay type: functional, organism-based; details: time 4-8 hrs
Plasmodium falciparum [10] = experiment: Antiplasmodial activity against schizont stage chloroquine-resistant Plasmodium falciparum INDO assessed as parasite killing for 0 to 3 hrs by stage specific inhibition assay relative to control; assay type: functional, organism-based; details: time 0-3 hrs
Plasmodium falciparum [11] = experiment: Antiplasmodial activity against ring stage chloroquine-resistant Plasmodium falciparum INDO assessed as percentage survival at 70 nM for 6 hrs by ring stage survival assay; assay type: functional, organism-based
Plasmodium falciparum [12] = experiment: Antiplasmodial activity against ring stage chloroquine-resistant Plasmodium falciparum Cam 3.1 R539 assessed as percentage survival at 70 nM for 6 hrs by ring stage survival assay; assay type: functional
Plasmodium falciparum [13] = experiment: Antiplasmodial activity against ring stage chloroquine resistant Plasmodium falciparum INDO assessed as percentage survival at 700 nM for 6 hrs by ring stage survival assay; assay type: functional
Plasmodium falciparum [14] = experiment: Antiplasmodial activity against ring stage chloroquine-resistant Plasmodium falciparum Cam 3.1 R539 assessed as percentage survival at 700 nM for 6 hrs by ring stage survival assay relative to control; assay type: functional
Plasmodium berghei [15] = experiment: Antimalarial activity against Plasmodium berghei ANKA infected in Balb/c mouse assessed as suppression of parasitemia at 50 mg/kg, ip administered for 4 days by microscopic analysis; assay type: functional; details: time 4 day
Plasmodium berghei [16] = experiment: Antimalarial activity against Plasmodium berghei ANKA infected in Balb/c mouse assessed as suppression of parasitemia at 50 mg/kg, po administered for 4 days by microscopic analysis; assay type: functional; details: time 4 day
A549 [17] = experiment: Anticancer activity against human A549 cells assessed as cell growth inhibition measured for 72 hrs by MTT assay; assay type: functional, cell-based; details: A549, 72 h
HepG2 = experiment: Anticancer activity against human HepG2 cells assessed as cell growth inhibition measured for 72 hrs by MTT assay; assay type: functional, cell-based; details: HepG2, 72 h
BEAS-2B [18] = experiment: Anticancer activity against human BEAS-2B cells assessed as cell growth inhibition measured for 72 hrs by MTT assay; assay type: functional, cell-based
L02 = experiment: Anticancer activity against human L02 cells assessed as cell growth inhibition measured for 72 hrs by MTT assay; assay type: functional, cell-based; details: L02, 72 h
[19] = Selectivity ratio of IC50 for anticancer activity against human BEAS-2B cells to IC50 for anticancer activity against human A549 cells; assay type: toxicity, cell-based; details: BEAS-2B cells versus A549 cells, read-out: Ratio IC50
[20] = Selectivity ratio of IC50 for anticancer activity against human L02 cells to IC50 for anticancer activity against human HepG2 cells; assay type: toxicity, cell-based; details: L02 cells versus HepG2 cells, read-out: Ratio IC50
A549 [21] = experiment: Induction of apoptosis in human A549 cells assessed as early apoptotic cells measured after 24 hrs by annexinV-FITC/propidium iodide staining based flow cytometry; assay type: functional
BEAS-2B [22] = experiment: Induction of apoptosis in human BEAS-2B cells assessed as late apoptotic cells measured after 24 hrs by annexinV-FITC/propidium iodide staining based flow cytometry; assay type: functional
Plasmodium falciparum [23] = experiment: Antiplasmodial activity against schizont stage chloroquine-resistant Plasmodium falciparum INDO assessed as parasite killing for 3 to 6 hrs by stage specific inhibition assay relative to control; assay type: functional; design: scale not given: the % may be the effect or the level left; details: time 3-6 hrs
Plasmodium falciparum [24] = experiment: Antiplasmodial activity against schizont stage chloroquine-resistant Plasmodium falciparum INDO assessed as parasite killing for 6 to 9 hrs by stage specific inhibition assay relative to control; assay type: functional; design: scale not given: the % may be the effect or the level left; details: time 6-9 hrs
Plasmodium falciparum [25] = experiment: Antiplasmodial activity against schizont stage chloroquine-resistant Plasmodium falciparum INDO assessed as parasite killing for 9 to 12 hrs by stage specific inhibition assay relative to contol; assay type: functional; design: scale not given: the % may be the effect or the level left; details: time 9-12 hrs

Row | SMILES | IC50 (Plasmodium falciparum [1]) | IC50 (Plasmodium falciparum [2]) | Ratio IC50 (Plasmodium falciparum [3]) | CC50 at 24 h [4] | selectivity ratio [5] | Activity (Plasmodium falciparum [6]) | Activity (Plasmodium falciparum [7]) | Activity (Plasmodium falciparum [8]) | Activity (Plasmodium falciparum [9]) | Activity (Plasmodium falciparum [10]) | Activity (Plasmodium falciparum [11]) | Activity (Plasmodium falciparum [12]) | Activity (Plasmodium falciparum [13]) | Activity (Plasmodium falciparum [14]) | IC50 (A549 [17]) | IC50 (HepG2) | IC50 (BEAS-2B [18]) | IC50 (L02) | selectivity ratio [19] | selectivity ratio [20] | also measured
1 | C=C(c1ccc(OC)c(F)c1)C1COC2(OO1)C1CC3CC(C1)CC2C3 (stereo unspecified) | 0.00448 µM | 0.0401 µM | 8.95 | 15.9 µM | 3970 | 38% | 100% | 50% | Active | Active | inactive | 30% | 100% | 6% | 48.2 µM | 32.1 µM | 61.2 µM | 11.9 µM | 0.68 | 0.57 | Activity (Plasmodium berghei [15]): 100%; Activity (Plasmodium berghei [16]): 100%
2 | C=C(c1ccc(Cl)c(Cl)c1Cl)C1COC2(CCCC2)OO1 (stereo unspecified) | 0.0206 µM | – | – | 1.44 µM | 72 | – | – | – | – | – | – | – | – | – | 0.69 µM | 8.45 µM | 11.5 µM | 1.19 µM | 16.7 | 0.13 | Activity (A549 [21]): 93.6%; Activity (BEAS-2B [22]): 8.6%
3 | C=C(c1ccc(Cl)cc1Cl)C1COC2(CCCC2)OO1 (stereo unspecified) | 0.00969 µM | 0.0707 µM | 7.29 | 12.1 µM | 1350 | 66% | 100% | 25% | Active | Active | inactive | 100% | 10% | 20% | 1.43 µM | 15.7 µM | 17.4 µM | 2.55 µM | 12.2 | 0.2 | Activity (Plasmodium falciparum [23]): 60%; Activity (Plasmodium falciparum [24]): 100%; Activity (Plasmodium falciparum [25]): 100%; Activity (Plasmodium berghei [15]): 100%; Activity (Plasmodium berghei [16]): 0%
4 | C=C(c1ccc(Cl)cc1Cl)C1COC2(CCCCC2)OO1 (stereo unspecified) | 0.018 µM | 0.109 µM | 6.09 | 2.47 µM | 145 | – | – | – | – | – | – | – | – | – | 0.81 µM | 17.6 µM | 16.7 µM | 3.69 µM | 20.6 | 0.097 | Activity (A549 [21]): 78%; Activity (BEAS-2B [22]): 4.5%
